The values that follow are results of earlier work, collected in patent publication US12060347B2 (BRISTOL-MYERS SQUIBB COMPANY, priority 2016, dated 2024).

In data set [1] the target is T1, protease-activated receptor type 4 (PAR4) (Homo sapiens, UniProt Q96RI0).
T1 sequence (Q96RI0 18-385): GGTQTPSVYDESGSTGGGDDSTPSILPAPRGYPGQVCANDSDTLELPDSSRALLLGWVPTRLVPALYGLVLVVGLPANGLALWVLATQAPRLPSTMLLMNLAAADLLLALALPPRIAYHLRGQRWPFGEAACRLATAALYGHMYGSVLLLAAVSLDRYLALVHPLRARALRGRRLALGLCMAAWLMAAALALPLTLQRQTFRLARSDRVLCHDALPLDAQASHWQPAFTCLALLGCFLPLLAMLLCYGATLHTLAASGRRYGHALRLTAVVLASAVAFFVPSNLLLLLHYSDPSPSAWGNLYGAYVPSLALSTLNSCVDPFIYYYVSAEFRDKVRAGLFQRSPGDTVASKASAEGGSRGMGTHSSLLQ
The following applies: abstract of Lee et al. 2001; cited from earlier work.

For the next data set, the target named is T2, PAR1 (Homo sapiens, UniProt P25116).
T2 sequence (P25116 22-425): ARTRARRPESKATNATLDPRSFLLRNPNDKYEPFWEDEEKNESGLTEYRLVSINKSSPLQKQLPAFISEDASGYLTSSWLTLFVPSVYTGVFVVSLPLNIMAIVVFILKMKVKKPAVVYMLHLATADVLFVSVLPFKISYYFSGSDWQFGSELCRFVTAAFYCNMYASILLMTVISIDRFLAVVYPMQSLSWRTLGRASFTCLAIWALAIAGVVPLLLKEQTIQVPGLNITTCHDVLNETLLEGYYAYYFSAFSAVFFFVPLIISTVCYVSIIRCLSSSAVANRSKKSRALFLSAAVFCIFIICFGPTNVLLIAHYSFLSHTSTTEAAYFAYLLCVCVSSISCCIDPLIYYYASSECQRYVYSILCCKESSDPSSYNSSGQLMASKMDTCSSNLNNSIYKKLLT
The following applies: ACS patients, TRACER phase III trial; cited from earlier work.

Consider `CCOC(=O)c1ccc(-c2nn(Cc3ccccc3)c3ccccc23)cc1` [YD-3, ethyl 4-(1-benzyl-1H-indazol-3-yl)benzoate], for which, in data set [1], the “inhibition of PAR4-dependent platelet activation” value was “selective and potent inhibitor”.

For `CCOC(=O)N[C@@H]1CC[C@@H]2[C@@H](C1)C[C@H]1C(=O)O[C@H](C)[C@H]1[C@H]2/C=C/c1ccc(-c2cccc(F)c2)cn1` [vorapaxar], at PAR1, the cardiovascular events result is reported as “did not significantly reduce” and the “risk of major bleeding” value was “significantly increased”.
